Measurements published in patent US11767322B2 (BRISTOL-MYERS SQUIBB COMPANY, priority 2020, dated 2023).
Like-named read-outs stand apart in the source and are kept apart here.

Experiments:
[1] = molecular target: T1, His-GST-TVMV-hRIPK1(1-324) (Homo sapiens, UniProt Q13546); assay: biochemical; assay type: binding; conditions: HTRF probe displacement, 1 h at rt; read-out: RIPK1 IC50
T1 construct: The coding region of human RIPK1(1-324) flanked by NdeI site at 5′ end; made in house; host or cells: Spodoptera frugiperda Sf9 insect cells (baculovirus, Bac-to-Bac)
T1 sequence (Q13546 1-324): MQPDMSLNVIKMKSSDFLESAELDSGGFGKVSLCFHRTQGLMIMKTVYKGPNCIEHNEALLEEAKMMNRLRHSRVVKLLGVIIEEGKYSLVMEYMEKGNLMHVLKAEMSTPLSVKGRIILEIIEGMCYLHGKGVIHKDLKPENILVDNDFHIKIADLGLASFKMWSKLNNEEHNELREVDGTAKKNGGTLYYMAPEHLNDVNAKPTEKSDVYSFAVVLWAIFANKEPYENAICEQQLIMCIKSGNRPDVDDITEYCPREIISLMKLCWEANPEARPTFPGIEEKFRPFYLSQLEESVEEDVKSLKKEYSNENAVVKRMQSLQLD

[2] = tested on: MLKL phosphorylation in HT29-L23 human colorectal adenocarcinoma cells; assay: MLKL phosphorylation high-content assay; assay type: cell-based; conditions: necroptosis induced with TNFα, SMAC mimetic and Z-VAD, 6 h, maximal inhibition defined by Nec1s
[3] = read-out: pMLKL IC50, HT29-L23 cells
[4] = Homo sapiens, read-out: pMLKL IC50, HT29-L23 cells

Work on `Nc1nc2cc(-c3ccc(Cl)c(C(=O)NCC(F)(F)C(O)c4cccc(F)c4F)c3F)ccn2n1` (single isomer, unassigned) [Example 167, 3-(2-amino-[1,2,4]triazolo[1,5-a]pyridin-7-yl)-6-chloro-N-(3-(2,3-difluorophenyl)-2,2-difluoro-3-hydroxypropyl)-2-fluorobenzamide] yielded an IC50 [1] of 15 nM and an IC50 [2, 3] of 7.8 nM.

`Nc1nc2cc(-c3ccc(Cl)c(C(=O)NCC(F)(F)C(O)c4cccc(F)c4)c3F)ccn2n1` (single isomer, unassigned) [Example 168, 3-{2-amino-[1,2,4]triazolo[1,5-a]pyridin-7-yl}-6-chloro-N-[2,2-difluoro-3-(3-fluorophenyl)-3-hydroxypropyl]-2-fluorobenzamide] showed an IC50 [1] of 0.3 nM and an IC50 [2, 3] of 1.1 nM.

For `Nc1nc2cc(-c3ccc(Cl)c(C(=O)NCC(F)(F)C(O)c4cccc(F)c4)c3F)ccn2n1` (single isomer, unassigned) [Example 169, 3-{2-amino-[1,2,4]triazolo[1,5-a]pyridin-7-yl}-6-chloro-N-[2,2-difluoro-3-(3-fluorophenyl)-3-hydroxypropyl]-2-fluorobenzamide], the IC50 [1] was 0.9 nM and the IC50 [2, 3] was 28 nM.

Work on `Nc1nc2cc(-c3ccc(Cl)c(C(=O)NCC(F)(F)C(O)c4cccc(Cl)c4F)c3F)ccn2n1` (single isomer, unassigned) [Example 170, 3-(2-amino-[1,2,4]triazolo[1,5-a]pyridin-7-yl)-6-chloro-N-(3-(3-chloro-2-fluorophenyl)-2,2-difluoro-3-hydroxypropyl)-2-fluorobenzamide] yielded an IC50 [1] of 0.1 nM and an IC50 [2, 3] of 1.4 nM.

With `Nc1nc2cc(-c3ccc(Cl)c(C(=O)NCC(F)(F)C(O)c4cccc(Cl)c4F)c3F)ccn2n1` (single isomer, unassigned) [Example 171, 3-(2-amino-[1,2,4]triazolo[1,5-a]pyridin-7-yl)-6-chloro-N-(3-(3-chloro-2-fluorophenyl)-2,2-difluoro-3-hydroxypropyl)-2-fluorobenzamide] the IC50 [1] was 1.6 nM and the IC50 [2, 3] was 10 nM.

`Nc1nc2cc(-c3ccc(Cl)c(C(=O)NCC(F)(F)C(O)c4cc(F)ccc4F)c3F)ccn2n1` (single isomer, unassigned) [Example 176, 3-(2-amino-[1,2,4]triazolo[1,5-a]pyridin-7-yl)-6-chloro-N-(3-(2,5-difluorophenyl)-2,2-difluoro-3-hydroxypropyl)-2-fluorobenzamide] was tested, and the IC50 [1] was 0.3 nM and the IC50 [2, 3] was 1.9 nM.

`Nc1nc2cc(-c3ccc(Cl)c(C(=O)NCC(F)(F)C(O)c4cc(F)ccc4F)c3F)ccn2n1` (single isomer, unassigned) [Example 177, 3-(2-amino-[1,2,4]triazolo[1,5-a]pyridin-7-yl)-6-chloro-N-(3-(2,5-difluorophenyl)-2,2-difluoro-3-hydroxypropyl)-2-fluorobenzamide] was tested, and the IC50 [1] was 1.8 nM and the IC50 [2, 3] was 23 nM.

`Nc1nc2cc(-c3ccc(Cl)c(C(=O)NCC(F)(F)C(O)c4ccc(F)cc4F)c3F)ccn2n1` (single isomer, unassigned) [Example 178, 3-(2-amino-[1,2,4]triazolo[1,5-a]pyridin-7-yl)-6-chloro-N-(3-(2,4-difluorophenyl)-2,2-difluoro-3-hydroxypropyl)-2-fluorobenzamide] showed an IC50 [1] of 0.9 nM and an IC50 [2, 3] of 22 nM.

`Nc1nc2cc(-c3ccc(Cl)c(C(=O)NCC(F)(F)C(O)c4ccc(F)cc4F)c3F)ccn2n1` (single isomer, unassigned) [Example 179, 3-(2-amino-[1,2,4]triazolo[1,5-a]pyridin-7-yl)-6-chloro-N-(3-(2,4-difluorophenyl)-2,2-difluoro-3-hydroxypropyl)-2-fluorobenzamide] gave an IC50 [1] of 0.3 nM and an IC50 [2, 3] of 3.7 nM.

`[2H]C([2H])([2H])C(O)(c1ccc(F)cc1)C(F)CNC(=O)c1c(C(F)F)ccc(-c2ccn3nc(N)nc3c2)c1F` (single isomer, unassigned) [Example 195, 3-(2-amino-[1,2,4]triazolo[1,5-a]pyridin-7-yl)-6-(difluoromethyl)-2-fluoro-N-(2-fluoro-3-(4-fluorophenyl)-3-hydroxybutyl-4,4,4-d3)benzamide] gave an IC50 [1] of 8.4 nM and an IC50 [2, 4] of 1 nM.

For `[2H]C([2H])([2H])C(O)(c1ccc(F)cc1)C(F)CNC(=O)c1c(C(F)F)ccc(-c2ccn3nc(N)nc3c2)c1F` (single isomer, unassigned) [Example 196, 3-(2-amino-[1,2,4]triazolo[1,5-a]pyridin-7-yl)-6-(difluoromethyl)-2-fluoro-N-(2-fluoro-3-(4-fluorophenyl)-3-hydroxybutyl-4,4,4-d3)benzamide], the IC50 [1] was 14 nM and the IC50 [2, 3] was 1 nM.

In the case of `[2H]C([2H])([2H])c1ccc(C(O)C(F)(F)CNC(=O)c2c(C([2H])([2H])[2H])ccc(-c3ccn4nc(N)nc4c3)c2F)cc1` (single isomer, unassigned) [Example 200, 3-(2-amino-[1,2,4]triazolo[1,5-a]pyridin-7-yl)-N-(2,2-difluoro-3-hydroxy-3-(4-(methyl-d3)phenyl)propyl)-2-fluoro-6-(methyl-d3)benzamide], the IC50 [1] is reported as 4.7 nM and the IC50 [2, 4] is reported as 0.8 nM.

In the case of `[2H]C([2H])([2H])c1ccc(C(O)C(F)(F)CNC(=O)c2c(C([2H])([2H])[2H])ccc(-c3ccn4nc(N)nc4c3)c2F)cc1` (single isomer, unassigned) [Example 201, 3-(2-amino-[1,2,4]triazolo[1,5-a]pyridin-7-yl)-N-(2,2-difluoro-3-hydroxy-3-(4-(methyl-d3)phenyl)propyl)-2-fluoro-6-(methyl-d3)benzamide], the IC50 [1] is reported as 6.7 nM and the IC50 [2, 3] is reported as 0.9 nM.

With `Cc1ccc(-c2ccn3nc(N)nc3c2)c(F)c1C(=O)NCC(C)(F)C(O)c1ccc(F)cc1` (single isomer, unassigned) [Example 202, 3-(2-amino-[1,2,4]triazolo[1,5-a]pyridin-7-yl)-2-fluoro-N-(2-fluoro-3-(4-fluorophenyl)-3-hydroxy-2-methylpropyl)-6-methylbenzamide] the IC50 [1] was 13 nM and the IC50 [2, 3] was 2.1 nM.

Molecule `Cc1ccc(-c2ccn3nc(N)nc3c2)c(F)c1C(=O)NCC(C)(F)C(O)c1ccc(F)cc1` (single isomer, unassigned) [Example 203, 3-(2-amino-[1,2,4]triazolo[1,5-a]pyridin-7-yl)-2-fluoro-N-(2-fluoro-3-(4-fluorophenyl)-3-hydroxy-2-methylpropyl)-6-methylbenzamide] has an IC50 [1] of 5.6 nM and an IC50 [2, 3] of 2.7 nM.

Molecule `Cc1ccc(-c2ccn3nc(N)nc3c2)c(F)c1C(=O)NCC(C)(F)C(O)c1ccc(F)cc1` (single isomer, unassigned) [Example 204, 3-(2-amino-[1,2,4]triazolo[1,5-a]pyridin-7-yl)-2-fluoro-N-(2-fluoro-3-(4-fluorophenyl)-3-hydroxy-2-methylpropyl)-6-methylbenzamide] has an IC50 [1] of 5.8 nM and an IC50 [2, 3] of 2.7 nM.

In the case of `Cc1ccc(-c2ccn3nc(N)nc3c2)c(F)c1C(=O)NCC(C)(F)C(O)c1ccc(F)cc1` (single isomer, unassigned) [Example 205, 3-(2-amino-[1,2,4]triazolo[1,5-a]pyridin-7-yl)-2-fluoro-N-(2-fluoro-3-(4-fluorophenyl)-3-hydroxy-2-methylpropyl)-6-methylbenzamide], the IC50 [1] is reported as 6.2 nM and the IC50 [2, 3] is reported as 5.1 nM.

In the case of `Cc1cc(F)c(-c2ccn3nc(N)nc3c2)cc1C(=O)NCC(F)(F)C(C)(O)c1ccc(Cl)cc1` (single isomer, unassigned) [Example 225, 5-(2-amino-[1,2,4]triazolo[1,5-a]pyridin-7-yl)-N-(3-(4-chlorophenyl)-2,2-difluoro-3-hydroxybutyl)-4-fluoro-2-methylbenzamide], the IC50 [1] is reported as 19 nM and the IC50 [2, 4] is reported as 3.8 nM.

`Cc1cc(F)c(-c2ccn3nc(N)nc3c2)cc1C(=O)NCC(F)(F)C(C)(O)c1ccc(Cl)cc1` (single isomer, unassigned) [Example 226, 5-(2-amino-[1,2,4]triazolo[1,5-a]pyridin-7-yl)-N-(3-(4-chlorophenyl)-2,2-difluoro-3-hydroxybutyl)-4-fluoro-2-methylbenzamide] showed an IC50 [1] of 8.3 nM and an IC50 [2, 3] of 2.2 nM.

`COC(c1ccc(F)cc1)C(F)(F)CNC(=O)c1c(C)ccc(-c2ccn3nc(N)nc3c2)c1F` (single isomer, unassigned) [Example 233, 3-(2-amino-[1,2,4]triazolo[1,5-a]pyridin-7-yl)-N-(2,2-difluoro-3-(4-fluorophenyl)-3-methoxypropyl)-2-fluoro-6-methylbenzamide] was tested, and the IC50 [1] was 2.6 nM and the IC50 [2, 3] was 0.5 nM.

`COC(c1ccc(F)cc1)C(F)(F)CNC(=O)c1c(C)ccc(-c2ccn3nc(N)nc3c2)c1F` (single isomer, unassigned) [Example 234, 3-(2-amino-[1,2,4]triazolo[1,5-a]pyridin-7-yl)-N-(2,2-difluoro-3-(4-fluorophenyl)-3-methoxypropyl)-2-fluoro-6-methylbenzamide] gave an IC50 [1] of 8.4 nM and an IC50 [2, 3] of 3 nM.

`[2H]C([2H])([2H])OC(c1ccc(F)cc1)C(F)(F)CNC(=O)c1c(C)ccc(-c2ccn3nc(N)nc3c2)c1F` (single isomer, unassigned) [Example 235, 3-(2-amino-[1,2,4]triazolo[1,5-a]pyridin-7-yl)-N-(2,2-difluoro-3-(4-fluorophenyl)-3-(methoxy-d3)propyl)-2-fluoro-6-methylbenzamide] showed an IC50 [1] of 4.3 nM and an IC50 [2, 4] of 0.6 nM.
